Laboratory results from ChEMBL document CHEMBL1201862, “PubChem BioAssay data set” (2004).
Several values for one entry are separate records, joined by “and”; a condition that tells them apart may be missing. Equal values may be shown once.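 Five compound concentrations were applied to cells in 96-well plates for 48 hours; endpoints were derived by simple linear interpolation of the resulting dose-response curve. GI50 is the concentration that inhibits growth by half.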 Activity calls are given as the source filed them. No stated cut-off is given here; in the data, active = GI50 up to about 1.1 µM and inactive = higher. Non-standard residues stand in square brackets, D forms with d. Residues, ends and D or L forms follow the SMILES beside them. ξ: configuration not given here. *: point of attachment. NMeF = CN[C@@H](Cc1ccccc1)C(=O)O; ξNMeV = CNC(C(=O)O)C(C)C; Boc = CC(C)(C)OC(=O)*; OBn = c1ccc(CO*)cc1

What was measured:
Assay in all cases: inhibition of tumour cell growth, NCI panel, 48 h
DLD-1 = test system: DLD-1
KM-20L2 = test system: KM-20L2
HOP-18 = test system: HOP-18
DMS-114 = test system: DMS-114
LXFL 529 = test system: LXFL 529
DMS-273 = test system: DMS-273
M19-MEL = test system: M19-MEL
XF498 = test system: XF498
RXF 631 = test system: RXF 631

Row | SMILES | GI50 (DLD-1) | GI50 (KM-20L2) | GI50 (HOP-18) | GI50 (DMS-114) | GI50 (LXFL 529) | GI50 (DMS-273) | GI50 (M19-MEL) | GI50 (XF498) | GI50 (RXF 631)
1 | Nc1ccc(C(=O)O)c2[nH]c3ccccc3c(=O)c12 | > 100 µM (inactive) | > 100 µM (inactive) | > 100 µM (inactive) | > 100 µM (inactive) | > 100 µM (inactive) | > 100 µM (inactive) | > 100 µM (inactive) | – | –
2 | CCOC(=O)c1cnc2[nH]c(=O)c3ccccc3n2c1=O | > 100 µM (inactive) | > 100 µM (inactive) | > 100 µM (inactive) | – | > 100 µM (inactive) | > 100 µM (inactive) | > 100 µM (inactive) | > 100 µM (inactive) | > 100 µM (inactive)
3 | CC(=O)O[C@H]1CC[C@@]2(C)C(=CC[C@@H]3C2CC[C@]2(C)C(=O)NC(=O)CC32)C1 (some centres undefined) | > 100 µM (inactive) | > 100 µM (inactive) | > 100 µM (inactive) | > 79.6 µM (inactive) | > 100 µM (inactive) | 62.7 µM (inactive) | > 100 µM (inactive) | > 100 µM (inactive) | > 100 µM (inactive)
4 | COC(=O)C(Cc1nc2ccccc2nc1C)/C(=N\NC(N)=O)C(=O)Nc1cccc([N+](=O)[O-])c1 (centres undefined) | > 100 µM (inactive) | > 100 µM (inactive) | > 100 µM (inactive) | 51.5 µM (inactive) | 37.7 µM (inactive) | – | 37.9 µM (inactive) | > 100 µM (inactive) | > 100 µM (inactive)
5 | O=C1c2ccccc2N2OC3(N4CCCC4)CCCC3C12c1ccccc1 (centres undefined) | > 100 µM (inactive) | > 100 µM (inactive) | > 100 µM (inactive) | 83.4 µM (inactive) | 67.8 µM (inactive) | 67.6 µM (inactive) | > 100 µM (inactive) | 92.3 µM (inactive) | –
6 | NC(=O)CCC(Nc1c2ccccc2nc2ccccc12)C(=O)O (centres undefined) | 88.3 µM (inactive) | > 100 µM (inactive) | – | – | > 100 µM (inactive) | > 100 µM (inactive) | > 100 µM (inactive) | – | 77.3 µM (inactive)
7 | CC(C)C(C(=O)N1CCC[C@@H]1C(=O)OCc1ccccc1)N(C)C(=O)C(C(C)C)N(C)C(=O)[C@H](Cc1ccccc1)N(C)C(=O)[C@H](NC(=O)OC(C)(C)C)C(C)C (some centres undefined) (Boc-[dV][NMeF][ξNMeV][ξNMeV][dP]-OBn) | > 100 µM (inactive) | > 100 µM (inactive) | > 100 µM (inactive) | 8.57 µM (inactive) | 8.81 µM (inactive) | 42.9 µM (inactive) | > 48.5 µM (inactive) | > 68.5 µM (inactive) | –
8 | CN(c1nc(=[N+](C)C)ss1)C1CCCCC1 | > 100 µM (inactive) | > 100 µM (inactive) | > 100 µM (inactive) | 32.1 µM (inactive) | > 100 µM (inactive) | > 100 µM (inactive) | > 100 µM (inactive) | > 100 µM (inactive) | > 100 µM (inactive)
9 | O=S(O)CCCCSSCC(O)C(O)CSSCCCCS(=O)O (centres undefined) | 41.1 µM (inactive) and 68.4 µM (inactive) | > 100 µM (inactive) and 50.6 µM (inactive) | > 100 µM (inactive) | 18.3 µM (inactive) and 14.6 µM (inactive) | 9.35 µM (inactive) and 12.5 µM (inactive) | 35 µM (inactive) and 19.7 µM (inactive) | 5.48 µM (inactive) and 3.37 µM (inactive) | 12.4 µM (inactive) and 19 µM (inactive) | 22.2 µM (inactive) and 29.2 µM (inactive)
10 | C1COCCN1.S=C(S)N1CCOCC1 | 0.628 µM (active) | 1.43 µM (inactive) | > 100 µM (inactive) | 0.279 µM (active) | 1.34 µM (inactive) | 1.38 µM (inactive) | 1.25 µM (inactive) | 1.92 µM (inactive) | –
11 | COc1ccc2nc3cc(Cl)ccc3c(Sc3ccc([N+](=O)[O-])cc3C)c2c1 | > 100 µM (inactive) | > 100 µM (inactive) | > 100 µM (inactive) | > 100 µM (inactive) | > 100 µM (inactive) | > 100 µM (inactive) | > 100 µM (inactive) | > 100 µM (inactive) | –
12 | C=CCCCCCC(O)C(O)C/C=C\C/C=C\CC (centres undefined) | > 18.8 µM (inactive) | > 18.8 µM (inactive) | > 18.8 µM (inactive) | > 16.8 µM (inactive) | > 18.8 µM (inactive) | > 18.8 µM (inactive) | – | > 18.8 µM (inactive) | –
13 | CCCCCC(CN1CCOCC1)C(=O)/C=C/c1ccccc1 (centres undefined) | – | 3.03 µM (inactive) | – | 1.79 µM (inactive) | – | 2.31 µM (inactive) | 2.41 µM (inactive) | 1.72 µM (inactive) | –
14 | COCOCC[C@@H]1CC=CC(NC(=O)OCc2ccccc2)C1/C=C/C(=O)CCC1OCCO1 (some centres undefined) | 17.1 µM (inactive) | 34.9 µM (inactive) | 34.3 µM (inactive) | 29.9 µM (inactive) | 22.4 µM (inactive) | 23 µM (inactive) | 19.1 µM (inactive) | 34.4 µM (inactive) | –
15 | Clc1cc2n[se]nc2cc1Cl | > 100 µM (inactive) | > 100 µM (inactive) | > 100 µM (inactive) | > 100 µM (inactive) | > 100 µM (inactive) | > 100 µM (inactive) | > 100 µM (inactive) | > 100 µM (inactive) | > 100 µM (inactive)
16 | [N-]=[N+]=NC1C(Cl)C(=O)NC(=O)N1[C@H]1C[C@H](O)[C@@H](CO)O1 (some centres undefined) | > 100 µM (inactive) | > 100 µM (inactive) | – | > 100 µM (inactive) | > 100 µM (inactive) | > 100 µM (inactive) | – | > 100 µM (inactive) | > 100 µM (inactive)
17 | CC1=C(C(=O)Nc2c(C)cccc2C)C(c2ccc3c(c2)OCO3)C(C(=O)Nc2c(C)cccc2C)=C(C)N1 | 19.3 µM (inactive) | 15.5 µM (inactive) | 18.9 µM (inactive) | 16.6 µM (inactive) | 18 µM (inactive) | – | – | – | 16.7 µM (inactive)
18 | COC(=O)C(C(=O)C(=O)Nc1ccc([N+](=O)[O-])cc1)c1nc2ccc([N+](=O)[O-])cc2nc1O (centres undefined) | > 100 µM (inactive) | > 100 µM (inactive) | > 100 µM (inactive) | 68.2 µM (inactive) | 43.5 µM (inactive) | > 100 µM (inactive) | > 100 µM (inactive) | – | > 100 µM (inactive)
19 | CCN(CC)CCCCC1CCN(CC(=O)N2c3ccccc3NC(=O)c3ccccc32)CC1 | > 100 µM (inactive) | – | – | > 100 µM (inactive) | > 100 µM (inactive) | > 100 µM (inactive) | > 100 µM (inactive) | > 100 µM (inactive) | > 100 µM (inactive)
20 | COC1=C(NC(C)=O)C(=O)c2nc3n(c2C1=O)CCC3 | 15 µM (inactive) | 38.3 µM (inactive) | 18.9 µM (inactive) | 12.2 µM (inactive) | – | 18.7 µM (inactive) | – | 19.1 µM (inactive) | –
21 | COC(=O)C1=CC2CC1C(S(=O)(=O)c1ccccc1)C2S(=O)(=O)c1ccccc1 (centres undefined) | 14.5 µM (inactive) | 16.4 µM (inactive) | 16.7 µM (inactive) | 15.5 µM (inactive) | 5.81 µM (inactive) | 10.5 µM (inactive) | 18.3 µM (inactive) | – | 13.5 µM (inactive)
